From US9029325B2, “Amylin analogues and pharmaceutical compositions thereof” (Novo Nordisk A/S, priority 2011, dated 2015)
Starred links: 1 amine or outer side, 2 acyl side, 3 side chain; linkers in the order of their positions; H or OH if unused. Positions of bridges follow the written chain, without caps; N, C: chain ends. Residues, ends and D or L forms follow the SMILES beside them. *: point of attachment. C20 diacid = O=C(O)CCCCCCCCCCCCCCCCCCC(=O)*; γGlu = O=C(O)[C@H](CCC(=O)[*:2])N[*:1]

Assay: Assay (I) efficacy testing on appetite (food intake), ad libitum fed rat model
Format: in vivo, Sprague Dawley (SD) rats
Details: 3 nmol/kg
From the text: Sprague Dawley (SD) rats from Taconic Europe, Denmark are used for the experiments. The rats have a body weight 200-250 g at the start of experiment. The rats arrive at least 10-14 days before start of experiment to allow acclimatization to experimental settings. During this period the animals are handled at least 2 times. After arrival rats are housed individually for one week in a reversed light/dark phase (meaning that lights are off during daytime and on during nighttime) […]. Since rats are normally active and eat their major part of their daily food intake during the dark period, rats are dosed in the morning right before lights are turned off. This set-up results in the lowest data variation and highst test sensitivity. The experiment is conducted in the rats' home cages and rats have free access to food and water througout the acclimatization period and the experiment period. Each dose of derivative is tested in a group of 5-8 rats. A vehicle group of 6-8 rats is included in each set of testing. Rats are dosed once according to body weight with a 0.01-3 mg/kg solution administered intraperitoneally (ip), orally (po) or subcutaneously (sc). The time of dosing is recorded for each group. After dosing, the rats are returned to their home cages, where they then have access to food and water. The food consumption is recorded individually continuously by on-line registration or manually every hour for 7 hours, and then after 24 h and sometimes 48 h. At the end of the experimental session, the animals are euthanised.
The individual data are recorded in Microsoft excel sheets. Outliers are excluded after applying the Grubbs statistical evaluation test for outliers, and the result is presented graphically using the GraphPad Prism program.

CC[C@H](C)[C@H](NC(=O)[C@@H]1CCCN1C(=O)CNC(=O)[C@H](Cc1ccccc1)NC(=O)[C@H](CC(N)=O)NC(=O)[C@H](CC(N)=O)NC(=O)[C@H](CO)NC(=O)[C@H](CO)NC(=O)[C@H](Cc1c[nH]cn1)NC(=O)[C@H](Cc1c[nH]cn1)NC(=O)[C@H](CC(C)C)NC(=O)[C@H](Cc1ccccc1)NC(=O)[C@H](CCC(=O)O)NC(=O)[C@H](C)NC(=O)[C@H](CC(C)C)NC(=O)[C@H](CCCNC(=N)N)NC(=O)[C@H](CCC(N)=O)NC(=O)[C@@H](NC(=O)[C@H](C)NC(=O)[C@@H]1CSSC[C@H](NC(=O)[C@H](Cc2c[nH]cn2)NC(=O)[C@H](Cc2c[nH]cn2)NC(=O)[C@H](Cc2c[nH]cn2)NC(=O)CC[C@H](NC(=O)CCCCCCCCCCCCCCCCCCC(=O)O)C(=O)O)C(=O)N[C@@H](CCCNC(=N)N)C(=O)N[C@@H]([C@@H](C)O)C(=O)N[C@@H](C)C(=O)N[C@@H]([C@@H](C)O)C(=O)N1)[C@@H](C)O)C(=O)N[C@@H](CC(C)C)C(=O)N1CCC[C@H]1C(=O)N1CCC[C@H]1C(=O)N[C@H](C(=O)N[C@@H](CC(N)=O)C(=O)N[C@H](C(=O)NCC(=O)N[C@@H](CO)C(=O)N[C@@H](CC(N)=O)C(=O)N[C@H](C(=O)N[C@@H](Cc1ccc(O)cc1)C(N)=O)[C@@H](C)O)C(C)C)[C@@H](C)O [compound 22] ({C20 diacid-γGlu}-HHHCRTATCATQRLAEFLHHSSNNFGPILPPTNVGSNTY-NH2; disulfide 4-9 (inferred); C-terminus assumed)
Food intake reduction 0-24 h 3 nmol/kg (%): 26%
Food intake reduction 24-48 h 3 nmol/kg (%): 5%

CC[C@H](C)[C@H](NC(=O)[C@@H]1CCCN1C(=O)CNC(=O)[C@H](Cc1ccccc1)NC(=O)[C@H](CC(N)=O)NC(=O)[C@H](CC(N)=O)NC(=O)[C@H](CO)NC(=O)[C@H](CO)NC(=O)[C@H](CCCNC(=N)N)NC(=O)[C@H](Cc1c[nH]cn1)NC(=O)[C@H](CC(C)C)NC(=O)[C@H](Cc1ccccc1)NC(=O)[C@H](CCC(=O)O)NC(=O)[C@H](C)NC(=O)[C@H](CC(C)C)NC(=O)[C@H](CCCNC(=N)N)NC(=O)[C@H](CCC(N)=O)NC(=O)[C@@H](NC(=O)[C@H](C)NC(=O)[C@@H]1CSSC[C@H](NC(=O)CC[C@H](NC(=O)CCCCCCCCCCCCCCCCCCC(=O)O)C(=O)O)C(=O)NCC(=O)N[C@@H]([C@@H](C)O)C(=O)N[C@@H](C)C(=O)N[C@@H]([C@@H](C)O)C(=O)N1)[C@@H](C)O)C(=O)N[C@@H](CC(C)C)C(=O)N1CCC[C@H]1C(=O)N1CCC[C@H]1C(=O)N[C@H](C(=O)N[C@@H](CCC(=O)O)C(=O)N[C@H](C(=O)NCC(=O)N[C@@H](CO)C(=O)NCC(=O)N[C@H](C(=O)N[C@@H](Cc1ccc(O)cc1)C(N)=O)[C@@H](C)O)C(C)C)[C@@H](C)O [compound 3] ({C20 diacid-γGlu}-CGTATCATQRLAEFLHRSSNNFGPILPPTEVGSGTY-NH2; disulfide 1-6 (inferred); C-terminus assumed)
Food intake reduction 0-24 h 3 nmol/kg (%): 37%
Food intake reduction 24-48 h 3 nmol/kg (%): 32%

CC[C@H](C)[C@H](NC(=O)[C@@H]1CCCN1C(=O)CNC(=O)[C@H](Cc1ccccc1)NC(=O)[C@H](CC(N)=O)NC(=O)[C@H](CC(N)=O)NC(=O)[C@H](CO)NC(=O)[C@H](CO)NC(=O)[C@H](Cc1c[nH]cn1)NC(=O)[C@H](Cc1c[nH]cn1)NC(=O)[C@H](CC(C)C)NC(=O)[C@H](Cc1ccccc1)NC(=O)[C@H](CCC(=O)O)NC(=O)[C@H](C)NC(=O)[C@H](CC(C)C)NC(=O)[C@H](CCCNC(=N)N)NC(=O)[C@H](CCC(N)=O)NC(=O)[C@@H](NC(=O)[C@H](C)NC(=O)[C@@H]1CSSC[C@H](NC(=O)[C@H](Cc2c[nH]cn2)NC(=O)[C@H](Cc2c[nH]cn2)NC(=O)CC[C@H](NC(=O)CCCCCCCCCCCCCCCCCCC(=O)O)C(=O)O)C(=O)N[C@@H](CC(N)=O)C(=O)N[C@@H]([C@@H](C)O)C(=O)N[C@@H](C)C(=O)N[C@@H]([C@@H](C)O)C(=O)N1)[C@@H](C)O)C(=O)N[C@@H](CC(C)C)C(=O)N1CCC[C@H]1C(=O)N1CCC[C@H]1C(=O)N[C@H](C(=O)N[C@@H](CC(N)=O)C(=O)N[C@H](C(=O)NCC(=O)N[C@@H](CO)C(=O)N[C@@H](CC(N)=O)C(=O)N[C@H](C(=O)N[C@@H](Cc1ccc(O)cc1)C(N)=O)[C@@H](C)O)C(C)C)[C@@H](C)O [compound 17] ({C20 diacid-γGlu}-HHCNTATCATQRLAEFLHHSSNNFGPILPPTNVGSNTY-NH2; disulfide 3-8 (inferred); C-terminus assumed)
Food intake reduction 0-24 h 3 nmol/kg (%): 40%
Food intake reduction 24-48 h 3 nmol/kg (%): 22%

CC[C@H](C)[C@H](NC(=O)[C@@H]1CCCN1C(=O)CNC(=O)[C@H](Cc1ccccc1)NC(=O)[C@H](CC(N)=O)NC(=O)[C@H](CC(N)=O)NC(=O)[C@H](CO)NC(=O)[C@H](CO)NC(=O)[C@H](Cc1c[nH]cn1)NC(=O)[C@H](Cc1c[nH]cn1)NC(=O)[C@H](CC(C)C)NC(=O)[C@H](Cc1ccccc1)NC(=O)[C@H](CCC(=O)O)NC(=O)[C@H](C)NC(=O)[C@H](CC(C)C)NC(=O)[C@H](CCCNC(=N)N)NC(=O)[C@H](CCC(N)=O)NC(=O)[C@@H](NC(=O)[C@H](C)NC(=O)[C@@H]1CSSC[C@H](NC(=O)[C@H](CCCCN)NC(=O)[C@H](CCC(=O)O)NC(=O)CC[C@H](NC(=O)CCCCCCCCCCCCCCCCCCC(=O)O)C(=O)O)C(=O)N[C@@H](CC(N)=O)C(=O)N[C@@H]([C@@H](C)O)C(=O)N[C@@H](C)C(=O)N[C@@H]([C@@H](C)O)C(=O)N1)[C@@H](C)O)C(=O)N[C@@H](CC(C)C)C(=O)N1CCC[C@H]1C(=O)N1CCC[C@H]1C(=O)N[C@H](C(=O)N[C@@H](CC(N)=O)C(=O)N[C@H](C(=O)NCC(=O)N[C@@H](CO)C(=O)N[C@@H](Cc1c[nH]cn1)C(=O)N[C@H](C(=O)N[C@@H](Cc1ccc(O)cc1)C(N)=O)[C@@H](C)O)C(C)C)[C@@H](C)O [compound 56] ({C20 diacid-γGlu}-EKCNTATCATQRLAEFLHHSSNNFGPILPPTNVGSHTY-NH2; disulfide 3-8)
Food intake reduction 0-24 h 3 nmol/kg (%): 46%
Food intake reduction 24-48 h 3 nmol/kg (%): 21%

CC[C@H](C)[C@H](NC(=O)[C@@H]1CCCN1C(=O)CNC(=O)[C@H](Cc1ccccc1)NC(=O)[C@H](CC(N)=O)NC(=O)[C@H](CC(N)=O)NC(=O)[C@H](CO)NC(=O)[C@H](CO)NC(=O)[C@H](Cc1c[nH]cn1)NC(=O)[C@H](Cc1c[nH]cn1)NC(=O)[C@H](CC(C)C)NC(=O)[C@H](Cc1ccccc1)NC(=O)[C@H](CCC(=O)O)NC(=O)[C@H](C)NC(=O)[C@H](CC(C)C)NC(=O)[C@H](CCCNC(=N)N)NC(=O)[C@H](CCC(N)=O)NC(=O)[C@@H](NC(=O)[C@H](C)NC(=O)[C@@H]1CSSC[C@H](NC(=O)[C@H](Cc2c[nH]cn2)NC(=O)CC[C@H](NC(=O)CCCCCCCCCCCCCCCCCCC(=O)O)C(=O)O)C(=O)N[C@@H](CC(N)=O)C(=O)N[C@@H]([C@@H](C)O)C(=O)N[C@@H](C)C(=O)N[C@@H]([C@@H](C)O)C(=O)N1)[C@@H](C)O)C(=O)N[C@@H](CC(C)C)C(=O)N1CCC[C@H]1C(=O)N1CCC[C@H]1C(=O)N[C@H](C(=O)N[C@@H](CC(N)=O)C(=O)N[C@H](C(=O)NCC(=O)N[C@@H](CO)C(=O)N[C@@H](CC(N)=O)C(=O)N[C@H](C(=O)N1CCC[C@H]1C(N)=O)[C@@H](C)O)C(C)C)[C@@H](C)O [Example 84, N-alpha-[(S)-4-Carboxy-4-(19-carboxynonadecanoylamino)butyryl]-[His1, Glu14, His17, Pro37]-pramlintide] ({C20 diacid-γGlu}-HCNTATCATQRLAEFLHHSSNNFGPILPPTNVGSNTP-NH2; disulfide 2-7)
Food intake reduction 0-24 h 3 nmol/kg (%): 68%
Food intake reduction 24-48 h 3 nmol/kg (%): 67%

CC[C@H](C)[C@H](NC(=O)[C@@H]1CCCN1C(=O)CNC(=O)[C@H](Cc1ccccc1)NC(=O)[C@H](CC(N)=O)NC(=O)[C@H](CC(N)=O)NC(=O)[C@H](CO)NC(=O)[C@H](CO)NC(=O)[C@H](Cc1c[nH]cn1)NC(=O)[C@H](CCCNC(=N)N)NC(=O)[C@H](CC(C)C)NC(=O)[C@H](Cc1ccccc1)NC(=O)[C@H](CCC(=O)O)NC(=O)[C@H](C)NC(=O)[C@H](CC(C)C)NC(=O)[C@H](CCCNC(=N)N)NC(=O)[C@H](CCC(N)=O)NC(=O)[C@@H](NC(=O)[C@H](C)NC(=O)[C@@H]1CSSC[C@H](NC(=O)[C@H](CCCCN)NC(=O)CC[C@H](NC(=O)CCCCCCCCCCCCCCCCCCC(=O)O)C(=O)O)C(=O)N[C@@H](CC(N)=O)C(=O)N[C@@H]([C@@H](C)O)C(=O)N[C@@H](C)C(=O)N[C@@H]([C@@H](C)O)C(=O)N1)[C@@H](C)O)C(=O)N[C@@H](CC(C)C)C(=O)N1CCC[C@H]1C(=O)N1CCC[C@H]1C(=O)N[C@H](C(=O)N[C@@H](CC(N)=O)C(=O)N[C@H](C(=O)NCC(=O)N[C@@H](CO)C(=O)N[C@@H](Cc1c[nH]cn1)C(=O)N[C@H](C(=O)N[C@@H](Cc1ccc(O)cc1)C(N)=O)[C@@H](C)O)C(C)C)[C@@H](C)O [Example 57, N-alpha-[(S)-4-Carboxy-4-(19-carboxynonadecanoylamino)butyryl]-[Glu14,Arg17,His35]-pramlintide] ({C20 diacid-γGlu}-KCNTATCATQRLAEFLRHSSNNFGPILPPTNVGSHTY-NH2; disulfide 2-7 (inferred); C-terminus assumed)
Food intake reduction 0-24 h 3 nmol/kg (%): 17%
Food intake reduction 24-48 h 3 nmol/kg (%): 0%
